From US12649748B2, “Wee1 inhibitor and use thereof” (JIANGSU TASLY DIYI PHARMACEUTICAL CO., LTD., priority 2021, dated 2026)

Key:
[1] = Metabolic stability of liver microsomes in vitro (human); format: in vitro ADME; conditions: read-out: Human T1/2/min
Experimental: (§1) Microsomes were taken out from the −80° C. refrigerator, rapidly melted in a 37° C. water bath and placed on ice until ready to use. The test article was diluted with DMSO to prepare a 10 mM stock solution, and then diluted with acetonitrile to a 0.5 mM secondary stock solution. The microsomes were diluted to 0.75 mg/ml using Buffer C; the secondary stock solution was then added to a final concentration of 1.5 μM of compound as working solution, based on n=2, 5 time points, 350 μL of each compound was prepared and placed on ice prior to use. NADPH was diluted with Buffer C to a working solution of 6 mM for the starter solution. An acetonitrile solution containing an internal standard was prepared as the precipitant, and Verapamil-HCl was chosen as the internal standard at a concentration of 4 ng/ml.
(§2) A round-bottom well plate was taken, noted as the reaction plate, and the prepared working solution for each compound was dispensed into the well plate according to the number of replicates and time points (0 h samples are also added to the reaction plate), 30 μL/well; the plate was incubated at 37° C. for 10 min. A separate plate with pointed bottom wells, noted as a precipitation plate, was added with 135 μL precipitant per well; 0 h samples were transferred to the plate after 10 min incubation and 15 μL of starter solution was added; the plate was placed on ice before centrifugation.
(§3) The diluted starter solution was added in sufficient quantity to the dispensing plate to facilitate the multichannel pipette aspiration operation.
(§4) The reaction was carried out on a warm incubation shaker and 15 μL of starter solution/sample is added to the plate using a multichannel pipette. The reaction was mixed with a slight shake to initiate the reaction, which was accurately timed and recorded using a timer;
(§5) After the reaction time had elapsed, all the solution in the plate was aspirated using the multichannel pipette and added to the precipitation plate to terminate the reaction at that point in time. After all reactions had been terminated, the plates were shaken for ten minutes on a plate shaker at 600 rpm to precipitate the protein. The plate was centrifuged at 4° C. for 15 minutes at maximum rpm. 80 μL of supernatant was taken, 320 μL of pure water was added and mixed for LC-MS analysis.

[2] = Compound pharmacokinetics in mice; format: in vivo; conditions: male ICR mice, oral gavage 10 mg/kg, plasma; for Cmax / AUC(0-inf) / half-life: mouse; for AUC(0-inf): read-out: AUCinf—Pred; for half-life: read-out: T½ (converted)
Experimental: To investigate the pharmacokinetic properties of the compound in mice, six male ICR mice were given the compound by oral gavage (10 mg/kg) at the corresponding dose, and each route of administration was divided into two groups: group A mice had anticoagulated whole blood collected at 5 min, 30 min, 2 h and 8 h after administration, while group B mice had anticoagulated whole blood collected at 15 min, 1 h, 4 h and 24 h after administration, isolated plasma;
The plasma concentrations of the compounds were determined by LC-MS using a standard curve calibration method. Plasma concentration-time data were fitted to pharmacokinetic parameters using Winnolin 5.2 software.

[3] = Metabolic stability of liver microsomes in vitro (mouse); format: in vitro ADME; conditions: read-out: Mouse T1/2/min
Experimental: as §1, §2, §3, §4, §5

CYP1A2 = molecular target: T1, CYP1A2 (Homo sapiens, UniProt P05177); assay: Inhibition of cytochrome P450, CYP1A2; format: in vitro ADME; conditions: CYP1A2 enzyme, pH 7.4, probe EOMCC, read-out: CYP inhibition/% 1A2; for inhibition at 30 min, 1 µM: compound concentration 1 μM; for inhibition at 30 min, 10 µM: compound concentration 10 μM
T1 sequence (P05177 1-516): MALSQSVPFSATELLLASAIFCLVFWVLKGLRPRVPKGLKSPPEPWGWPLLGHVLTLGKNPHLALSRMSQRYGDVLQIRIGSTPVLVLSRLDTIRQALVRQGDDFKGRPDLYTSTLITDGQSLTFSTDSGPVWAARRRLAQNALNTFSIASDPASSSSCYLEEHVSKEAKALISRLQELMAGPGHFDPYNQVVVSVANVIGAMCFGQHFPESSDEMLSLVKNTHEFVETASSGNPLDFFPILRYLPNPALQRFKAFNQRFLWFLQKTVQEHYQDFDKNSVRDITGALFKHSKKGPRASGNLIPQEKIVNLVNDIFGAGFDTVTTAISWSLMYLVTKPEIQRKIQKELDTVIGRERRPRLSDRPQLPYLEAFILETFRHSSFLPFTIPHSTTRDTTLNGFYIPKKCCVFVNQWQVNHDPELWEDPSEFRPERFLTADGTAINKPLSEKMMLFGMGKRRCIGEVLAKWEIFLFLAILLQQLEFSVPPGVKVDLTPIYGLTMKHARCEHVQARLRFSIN
Experimental: (§6) Enzymatic experiments were performed to quantify the inhibition of CYP450 enzyme activity of each isoform of CYP450 by small molecule inhibitors through fluorescence generated by the oxidation of the substrate by cytochrome P450. […] The Solution B composition used for the experiment was: 40 U/mL G6PDH (Sigma-aldrich, Cat #G6378). The substrate mix was 0.05× Solution A, 0.01× Solution B, 50 mM Potassium Phosphate, 0.01 mM BOMCC/0.01 mM EOMCC/0.001 mM DBOMF. […] The data were analyzed and processed using GraphPad Prism 6 software to obtain IC50 values.

CYP2C8 = molecular target: T2, CYP2C8 (Homo sapiens, UniProt P10632); assay: Inhibition of cytochrome P450, CYP2C8; format: in vitro ADME; conditions: CYP2C8 enzyme, pH 7.4, probe DBOMF, read-out: CYP inhibition/% 2C8; for inhibition at 30 min, 1 µM: compound concentration 1 μM; for inhibition at 30 min, 10 µM: compound concentration 10 μM
T2 sequence (P10632 1-490): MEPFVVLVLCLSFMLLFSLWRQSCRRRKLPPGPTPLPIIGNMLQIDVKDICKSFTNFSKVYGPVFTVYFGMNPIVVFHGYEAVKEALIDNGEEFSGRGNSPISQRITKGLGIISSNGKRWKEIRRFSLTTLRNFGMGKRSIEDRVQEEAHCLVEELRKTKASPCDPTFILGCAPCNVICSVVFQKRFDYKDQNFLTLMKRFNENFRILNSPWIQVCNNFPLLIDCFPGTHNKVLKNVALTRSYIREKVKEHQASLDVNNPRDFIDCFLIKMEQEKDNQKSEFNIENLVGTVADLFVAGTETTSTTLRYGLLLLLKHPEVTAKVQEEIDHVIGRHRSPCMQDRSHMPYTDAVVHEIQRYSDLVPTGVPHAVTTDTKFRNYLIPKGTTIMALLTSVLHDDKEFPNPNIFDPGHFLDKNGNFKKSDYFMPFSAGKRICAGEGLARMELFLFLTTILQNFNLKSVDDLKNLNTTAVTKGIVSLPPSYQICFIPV
Experimental: as §6

SMILES: C=CCn1c(=O)c2cnc(Nc3ccc(N4CCN(C)CC4)cc3)nc2n1-c1cccc(C(C)(C)O)n1 [AZD-1775, reference compound]
- half-life at 1 µM [1]: > 2 h
- Cl_pred [2]: 347 mL/min/kg
- Cmax [2]: 445 ng/mL
- AUC(0-inf) [2]: 500 ng·h/mL
- half-life [2]: 0.77 h
- half-life at 1 µM [3]: 0.502 h

SMILES: CN1CCN(c2ccc(Nc3ncc4cnn(-c5cccc(N=S(C)(C)=O)n5)c4n3)cc2)CC1 [Compound 1]
- inhibition at 30 min, 1 µM (CYP1A2): 18.4%
- inhibition at 30 min, 10 µM (CYP1A2): 16.3%
- half-life at 1 µM [1]: > 2 h
- inhibition at 30 min, 1 µM (CYP2C8): -5.3%
- inhibition at 30 min, 10 µM (CYP2C8): 3.2%
- Cl_pred [2]: 658 mL/min/kg
- Cmax [2]: 169 ng/mL
- AUC(0-inf) [2]: 260 ng·h/mL
- half-life [2]: 1.71 h
- half-life at 1 µM [3]: 1 h

SMILES: CN1CCN(c2ccc(Nc3ncc4cnn(-c5cccc(C(C)(C)O)n5)c4n3)cc2)CC1 [Compound 2]
- inhibition at 30 min, 1 µM (CYP1A2): 13.5%
- inhibition at 30 min, 10 µM (CYP1A2): 14.2%
- half-life at 1 µM [1]: > 2 h
- inhibition at 30 min, 1 µM (CYP2C8): -11%
- inhibition at 30 min, 10 µM (CYP2C8): 0.24%
- half-life at 1 µM [3]: 0.26 h

SMILES: CS(C)(=O)=Nc1cccc(-n2ncc3cnc(Nc4ccc(N5CCOCC5)cc4)nc32)n1 [Compound 6]
- inhibition at 30 min, 1 µM (CYP1A2): 15.5%
- inhibition at 30 min, 10 µM (CYP1A2): 23.3%
- inhibition at 30 min, 1 µM (CYP2C8): -14.3%
- inhibition at 30 min, 10 µM (CYP2C8): 20.9%

SMILES: Cc1cc(Nc2ncc3cnn(-c4cccc(N=S(C)(C)=O)n4)c3n2)ccc1N1CCC(N(C)C)CC1 [Compound 14]
- half-life at 1 µM [1]: > 2 h
- half-life at 1 µM [3]: 1.12 h

SMILES: Cc1cc(Nc2ncc3cnn(-c4cccc(N=S(C)(C)=O)n4)c3n2)ccc1N1CCN(C)CC1 [Compound 16]
- half-life at 1 µM [1]: > 2 h
- half-life at 1 µM [3]: 0.148 h
